What all share (format): in vivo, Arabidopsis
The subject of data set [1] is SYAC1 promoter. Description: pSYAC1:GUS / pSYAC1:nlsGFP reporter expression in roots. Here is the method:
The syac1-1 (salk_151420C, Col-0, KAN^R) and syac1-2 (salk_151662B, Col-0, KAN^R) T-DNA insertion lines were obtained from the Salk Institute. The syac1-3 (GABI-KAT 760F05, Col-0, SUL^R) and syac1-4 (GABI-KAT 961C03, Col-0, SUL^R) T-DNA insertion lines were obtained from the GABI KAT seed collection. The syac1-5 CRISPR line was prepared in collaboration with the VBCF Protein Technologies Facility (www.vbcf.ac.at) (see below). The genetically modified fluorescent-protein marker lines in Col-0 background have been described elsewhere: mCherry tagged wave line 6, 9, 13, 18, 25, 29, 34, 127, 129, 131, 138 (Geldner et al., 2009, Plant J. 59, 169-178), SYP61:SYP61-CFP (Drakakaki et al., 2012, Cell Res. 22, 413-424). The echidna mutant has been described in (Gendre et al., 2011, PNAS 108, 8048-8053) and yip4a-2 yip4b-1 in (Gendre et al., 2013, The Plant Cell 25, 2633-2646). Seeds of Arabidopsis were plated and grown on square plates with solid half strength Murashige and Skoog (MS) medium (Duchefa) supplemented with 0.5 g L^−1 MES, 10 g L^−1 Sucrose, 1% agar and pH adjusted to 5.9. The plates were incubated at 4° C. for 48 h to synchronize seed germination and then vertically grown under a 16:8 h day/night cycle photoperiod at 21° C. Cytokinin and auxin treatments were performed with the N6-benzyladenine cytokinin derivative (Sigma) and Naphthaleneacetic acid (Sigma), respectively. Short treatments (6 hours) for GUS/GFP expression were performed with 10 μM cytokinin and 1 μM auxin (unless indicated differently). For root growth transient assay 0.1 μM cytokinin and 0.05 μM auxin was used. Estradiol treatment was performed with β-Estradiol (Sigma).
For promoter analysis of SYAC1, an upstream sequence of 2522 bp was amplified by PCR and introduced into the pDONRP4-P1R entry vector. Then transcriptional lines (pSYAC1:GUS, pSYAC1:nlsGFP) were created: for pSYAC1:GUS, an LR reaction with SYAC1 promoter in pDONORP4-P1R, pEN-L1-S-L2,0 and pK7m24GW,0 vectors was performed. For pSYAC1:nlsGFP line, an LR reaction with SYAC1 promoter in pDONORP4-P1R, pEN-L1-NF-L2,0 and pB7m24GW,0 was performed. […]

Data set [2] concerns root tip of wild type control plants. Description: Effect of excess copper on the primary root of seedlings grown on agar. The note with it: 5 days on normal media, then transferred to media containing 50 μM CuSO4. Here is the method:
Plants were grown for 5 days on normal AM+ media and then transferred to media containing 50 μM CuSO4.

In data set [3] the test system is SYAC1 expression. The data set can be described thus: Genome wide transcriptome profiling of roots exposed to auxin, cytokinin and both hormones. The following applies: 3 hours of treatment, 1 μM auxin, 10 μM cytokinin. Here is the method: The syac1-1 (salk_151420C, Col-0, KAN^R) and syac1-2 (salk_151662B, Col-0, KAN^R) T-DNA insertion lines were obtained from the Salk Institute. The syac1-3 (GABI-KAT 760F05, Col-0, SUL^R) and syac1-4 (GABI-KAT 961C03, Col-0, SUL^R) T-DNA insertion lines were obtained from the GABI KAT seed collection. The syac1-5 CRISPR line was prepared in collaboration with the VBCF Protein Technologies Facility (www.vbcf.ac.at) (see below). The genetically modified fluorescent-protein marker lines in Col-0 background have been described elsewhere: mCherry tagged wave line 6, 9, 13, 18, 25, 29, 34, 127, 129, 131, 138 (Geldner et al., 2009, Plant J. 59, 169-178), SYP61:SYP61-CFP (Drakakaki et al., 2012, Cell Res. 22, 413-424). The echidna mutant has been described in (Gendre et al., 2011, PNAS 108, 8048-8053) and yip4a-2 yip4b-1 in (Gendre et al., 2013, The Plant Cell 25, 2633-2646). […]
To search for novel molecular components and mechanisms of auxin-cytokinin cross-talk, genome wide transcriptome profiling of roots exposed to auxin, cytokinin and both hormones simultaneously, was performed. […] This SYAC1 expression profile in roots was further validated by quantitative real-time (RT-qPCR) (FIG. 2A). […]

The values that follow come from US20210269815A1, “GENETICALLY MODIFIED PLANT AND USES THEREOF” (IST AUSTRIA, priority 2018, published 2021).

Structures are written as SMILES.

Take `NC1(C(=O)O)CC1` [ACC, 1-aminocyclopropane-1-carboxylic acid]: the “enhancement of pSYAC1:GUS expression” value in data set [1] (roots treated with ACC only or in combination with cytokinin, auxin or both) is reported as “No enhancement”.

With `O=S(=O)([O-])[O-].[Cu+2]` [CuSO4], in data set [1] (50 μM CuSO4 in ½MS plus Agar substrate), the “SYAC1 promoter-driven GUS expression in reporter lines” value is recorded as “able to trigger”. Also, in data set [2], the “swelling of cells at the root tip” value was “trigger swelling of cells at the root tip”.

Regarding `O=C(O)Cc1cccc2ccccc12` [auxin, Naphthaleneacetic acid], in data set [3], the “SYAC1 expression compared to an untreated control” value is 2.47±0.20.

As for `c1ccc(CNc2ncnc3nc[nH]c23)cc1` [cytokinin, N6-benzyladenine], in data set [3], the “SYAC1 expression compared to an untreated control” value was 1.53±0.19. For the same molecule, the “pSYAC1 reporter signal (pSYAC1:GUS, pSYAC1:nlsGFP)” value in data set [1] (roots, 6 hours exposure) was “enhanced reporter signal in the quiescent center (QC) and columella initials (CI)”.
